In paper PMC11438954 (Nature Communications, 2024):

Columns and labels:
[1] = target: T1, NavMs (Magnetococcus marinus, UniProt A0L5S6, F208L); test: X-ray crystal structure with sulphur anomalous signal; […]-19F STD NMR; IC50 from whole-cell patch clamp (SSI shift) in HEK293T cells; format: cell-based
T1 construct: gene Mmc1_0798; full-length homotetrameric channel, thrombin-treated

[2] = target: NavMs (NavMs F208L, referred to as WT in the paper), prokaryotic voltage-gated sodium channel from Magnetococcus marinus (Magnetococcus marinus) (UniProt A0L5S6); test: crystal structure; NavMs (10 mg/ml, 300 uM) with 0.5 mM riluzole in 1% DMSO, or 1% DMSO alone; sitting drops at 4 °C, 30-35% PEG 300, 100 mM HEPES pH 7, 0-100 mM NaCl, HEGA-10 detergent; space group I422, one monomer per asymmetric unit, tetramer by crystal symmetry

T1 sequence (A0L5S6 entry or part of it F208L): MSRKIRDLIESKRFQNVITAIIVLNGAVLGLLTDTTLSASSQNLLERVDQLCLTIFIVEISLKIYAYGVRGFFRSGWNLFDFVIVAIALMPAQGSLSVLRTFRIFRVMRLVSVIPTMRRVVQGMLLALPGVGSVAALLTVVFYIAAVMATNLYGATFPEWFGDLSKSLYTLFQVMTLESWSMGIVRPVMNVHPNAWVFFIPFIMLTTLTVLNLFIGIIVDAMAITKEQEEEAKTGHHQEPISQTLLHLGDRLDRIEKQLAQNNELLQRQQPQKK

stoichiometry N [2]	Compound	IC50 [1] [nM]
–	Nc1nc2ccc(OC(F)(F)F)cc2s1 [riluzole, 2-amino-6-(trifluoromethoxy)benzothiazole]	2000
4	NavMs (NavMs F208L, referred to as WT in the paper), prokaryotic voltage-gated sodium channel from Magnetococcus marinus (from UniProt A0L5S6 1-274) (natural protein)	–
